Columns and labels:
Settings in all cases: Compound concentration 1.0 uM
[1] = molecular target: G-protein coupled receptor 83 (Homo sapiens) (UniProt Q9NYM4); test: RLU of GPR83 at 1.0 µM in the […] PRESTO-Tango GPCRome screen
[2] = molecular target: C5a anaphylatoxin chemotactic receptor 1 (Homo sapiens) (UniProt P21730); test: RLU of C5A at 1.0 µM in the […] PRESTO-Tango GPCRome screen
[3] = molecular target: G-protein coupled receptor 135 (Homo sapiens) (UniProt Q8IZ08); test: RLU of GPR135 at 1.0 µM in the […] PRESTO-Tango GPCRome screen
[4] = molecular target: Adhesion G protein-coupled receptor A3 (Homo sapiens) (UniProt Q8IWK6); test: RLU of GPR125 at 1.0 µM in the […] PRESTO-Tango GPCRome screen
[5] = molecular target: N-formyl peptide receptor 3 (Homo sapiens) (UniProt P25089); test: RLU of FPR3 at 1.0 µM in the […] PRESTO-Tango GPCRome screen
[6] = molecular target: Prostacyclin receptor (Homo sapiens) (UniProt P43119); test: RLU of PTGIR at 1.0 µM in the […] PRESTO-Tango GPCRome screen
Chain of Prostacyclin receptor (Homo sapiens) (P43119 whole entry): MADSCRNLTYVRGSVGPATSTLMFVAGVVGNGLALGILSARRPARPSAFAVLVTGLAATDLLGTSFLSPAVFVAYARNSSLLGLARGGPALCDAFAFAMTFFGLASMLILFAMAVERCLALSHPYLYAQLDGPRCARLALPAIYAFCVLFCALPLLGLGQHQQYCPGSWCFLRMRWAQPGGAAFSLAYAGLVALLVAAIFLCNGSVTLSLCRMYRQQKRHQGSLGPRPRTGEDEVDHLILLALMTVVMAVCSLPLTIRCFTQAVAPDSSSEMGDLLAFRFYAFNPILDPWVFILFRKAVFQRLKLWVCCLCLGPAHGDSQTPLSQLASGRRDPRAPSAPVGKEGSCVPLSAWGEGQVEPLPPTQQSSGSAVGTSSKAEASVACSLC

[7] = molecular target: Trace amine-associated receptor 9 (Homo sapiens) (UniProt Q96RI9); test: RLU of TAAR9 at 1.0 µM in the […] PRESTO-Tango GPCRome screen
Chain of Trace amine-associated receptor 9 (Homo sapiens) (Q96RI9 whole entry): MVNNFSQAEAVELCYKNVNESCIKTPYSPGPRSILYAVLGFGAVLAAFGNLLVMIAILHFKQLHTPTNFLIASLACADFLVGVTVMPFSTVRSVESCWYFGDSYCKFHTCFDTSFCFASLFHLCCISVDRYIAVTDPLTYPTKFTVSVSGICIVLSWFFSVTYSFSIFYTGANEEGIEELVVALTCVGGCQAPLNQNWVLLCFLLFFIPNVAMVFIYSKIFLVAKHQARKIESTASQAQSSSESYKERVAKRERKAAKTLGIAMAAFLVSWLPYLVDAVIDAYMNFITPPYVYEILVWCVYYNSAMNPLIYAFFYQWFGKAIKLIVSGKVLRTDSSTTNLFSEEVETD

[8] = molecular target: N-formyl peptide receptor 2 (Homo sapiens) (UniProt P25090); test: RLU of FPR2 at 1.0 µM in the […] PRESTO-Tango GPCRome screen
[9] = molecular target: Vasoactive intestinal polypeptide receptor 1 (Homo sapiens) (UniProt P32241); test: RLU of VIPR1 at 1.0 µM in the […] PRESTO-Tango GPCRome screen
[10] = molecular target: Uracil nucleotide/cysteinyl leukotriene receptor (Homo sapiens) (UniProt Q13304); test: RLU of GPR17 at 1.0 µM in the […] PRESTO-Tango GPCRome screen
[11] = molecular target: Neuropeptide FF receptor 1 (Homo sapiens) (UniProt Q9GZQ6); test: RLU of NPFF1 at 1.0 µM in the […] PRESTO-Tango GPCRome screen
[12] = molecular target: Chemerin-like receptor 2 (Homo sapiens) (UniProt P46091); test: RLU of GPR1 at 1.0 µM in the […] PRESTO-Tango GPCRome screen
Chain of Chemerin-like receptor 2 (Homo sapiens) (P46091 whole entry): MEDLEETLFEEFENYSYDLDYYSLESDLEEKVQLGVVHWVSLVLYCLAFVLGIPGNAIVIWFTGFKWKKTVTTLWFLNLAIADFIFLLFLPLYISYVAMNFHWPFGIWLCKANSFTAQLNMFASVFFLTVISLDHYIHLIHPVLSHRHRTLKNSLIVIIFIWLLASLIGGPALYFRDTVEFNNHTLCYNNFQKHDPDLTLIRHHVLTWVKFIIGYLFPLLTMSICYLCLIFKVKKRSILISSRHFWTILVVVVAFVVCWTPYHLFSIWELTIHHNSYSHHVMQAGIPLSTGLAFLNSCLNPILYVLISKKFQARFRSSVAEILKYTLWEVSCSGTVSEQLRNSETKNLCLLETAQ

[13] = molecular target: Probable G-protein coupled receptor 149 (Homo sapiens) (UniProt Q86SP6); test: RLU of GPR149 at 1.0 µM in the […] PRESTO-Tango GPCRome screen
[14] = molecular target: Probable G-protein coupled receptor 150 (Homo sapiens) (UniProt Q8NGU9); test: RLU of GPR150 at 1.0 µM in the […] PRESTO-Tango GPCRome screen
[15] = molecular target: G-protein coupled bile acid receptor 1 (Homo sapiens) (UniProt Q8TDU6); test: RLU of GPBA at 1.0 µM in the […] PRESTO-Tango GPCRome screen
Chain of G-protein coupled bile acid receptor 1 (Homo sapiens) (Q8TDU6 whole entry): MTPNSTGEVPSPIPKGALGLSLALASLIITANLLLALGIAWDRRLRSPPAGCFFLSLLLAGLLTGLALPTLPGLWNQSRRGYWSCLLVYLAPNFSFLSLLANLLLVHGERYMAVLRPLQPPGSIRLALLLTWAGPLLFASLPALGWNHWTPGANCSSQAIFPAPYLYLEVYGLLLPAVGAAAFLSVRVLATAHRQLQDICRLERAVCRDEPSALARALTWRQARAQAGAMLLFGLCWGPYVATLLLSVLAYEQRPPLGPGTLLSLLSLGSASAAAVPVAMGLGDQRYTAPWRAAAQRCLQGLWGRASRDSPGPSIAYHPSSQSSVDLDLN

[16] = molecular target: Gastrin/cholecystokinin type B receptor (Homo sapiens) (UniProt P32239); test: RLU of CCKBR at 1.0 µM in the […] PRESTO-Tango GPCRome screen
Chain of Gastrin/cholecystokinin type B receptor (Homo sapiens) (P32239 whole entry): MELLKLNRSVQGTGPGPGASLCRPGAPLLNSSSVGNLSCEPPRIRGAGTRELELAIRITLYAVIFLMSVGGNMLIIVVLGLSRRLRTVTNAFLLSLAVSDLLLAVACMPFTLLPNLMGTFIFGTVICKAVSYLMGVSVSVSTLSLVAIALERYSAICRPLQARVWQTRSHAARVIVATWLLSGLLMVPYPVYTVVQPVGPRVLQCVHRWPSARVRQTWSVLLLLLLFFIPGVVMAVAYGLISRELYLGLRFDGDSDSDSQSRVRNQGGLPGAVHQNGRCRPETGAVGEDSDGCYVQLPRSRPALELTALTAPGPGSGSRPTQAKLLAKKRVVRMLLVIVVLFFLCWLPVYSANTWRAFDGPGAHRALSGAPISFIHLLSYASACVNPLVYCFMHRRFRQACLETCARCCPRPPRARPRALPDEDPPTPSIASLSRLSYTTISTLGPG

[17] = molecular target: G-protein coupled receptor 151 (Homo sapiens) (UniProt Q8TDV0); test: RLU of GPR151 at 1.0 µM in the […] PRESTO-Tango GPCRome screen
Chain of G-protein coupled receptor 151 (Homo sapiens) (Q8TDV0 whole entry): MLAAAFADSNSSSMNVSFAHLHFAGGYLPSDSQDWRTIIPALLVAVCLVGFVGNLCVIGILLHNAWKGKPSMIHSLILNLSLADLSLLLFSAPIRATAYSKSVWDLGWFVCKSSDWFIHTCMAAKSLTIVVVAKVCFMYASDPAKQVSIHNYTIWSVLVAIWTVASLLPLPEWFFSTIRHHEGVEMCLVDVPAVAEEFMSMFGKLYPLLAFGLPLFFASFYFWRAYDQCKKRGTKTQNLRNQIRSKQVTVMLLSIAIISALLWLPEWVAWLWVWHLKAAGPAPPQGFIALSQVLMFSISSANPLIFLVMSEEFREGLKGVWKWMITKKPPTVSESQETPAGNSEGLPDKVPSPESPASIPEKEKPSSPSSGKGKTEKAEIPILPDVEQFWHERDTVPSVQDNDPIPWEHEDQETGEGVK

[18] = molecular target: Gonadotropin-releasing hormone receptor (Homo sapiens) (UniProt P30968); test: RLU of GNRHR at 1.0 µM in the […] PRESTO-Tango GPCRome screen
[19] = molecular target: Motilin receptor (Homo sapiens) (UniProt O43193); test: RLU of MLNR at 1.0 µM in the […] PRESTO-Tango GPCRome screen
[20] = molecular target: Retinoic acid-induced protein 3 (Homo sapiens) (UniProt Q8NFJ5); test: RLU of GPRC5A at 1.0 µM in the […] PRESTO-Tango GPCRome screen
[21] = molecular target: KiSS-1 receptor (Homo sapiens) (UniProt Q969F8); test: RLU of KISSPEPTIN at 1.0 µM in the […] PRESTO-Tango GPCRome screen
[22] = molecular target: Probable G-protein coupled receptor 142 (Homo sapiens) (UniProt Q7Z601); test: RLU of GPR142 at 1.0 µM in the […] PRESTO-Tango GPCRome screen
[23] = molecular target: Mas-related G-protein coupled receptor member X4 (Homo sapiens) (UniProt Q96LA9); test: RLU of MRGPRX4 at 1.0 µM in the […] PRESTO-Tango GPCRome screen
Chain of Mas-related G-protein coupled receptor member X4 (Homo sapiens) (Q96LA9 whole entry): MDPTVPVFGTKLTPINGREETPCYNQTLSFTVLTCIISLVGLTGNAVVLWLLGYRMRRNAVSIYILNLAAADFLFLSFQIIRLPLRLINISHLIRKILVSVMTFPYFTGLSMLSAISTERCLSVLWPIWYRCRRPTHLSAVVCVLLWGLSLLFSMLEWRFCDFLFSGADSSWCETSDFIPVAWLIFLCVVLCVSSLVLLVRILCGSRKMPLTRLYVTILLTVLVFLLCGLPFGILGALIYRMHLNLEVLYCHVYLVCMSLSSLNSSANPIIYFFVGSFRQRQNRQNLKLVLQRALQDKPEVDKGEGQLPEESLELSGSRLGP

[24] = molecular target: G-protein coupled receptor 65 (Homo sapiens) (UniProt Q8IYL9); test: RLU of GPR65 at 1.0 µM in the […] PRESTO-Tango GPCRome screen
Chain of G-protein coupled receptor 65 (Homo sapiens) (Q8IYL9 whole entry): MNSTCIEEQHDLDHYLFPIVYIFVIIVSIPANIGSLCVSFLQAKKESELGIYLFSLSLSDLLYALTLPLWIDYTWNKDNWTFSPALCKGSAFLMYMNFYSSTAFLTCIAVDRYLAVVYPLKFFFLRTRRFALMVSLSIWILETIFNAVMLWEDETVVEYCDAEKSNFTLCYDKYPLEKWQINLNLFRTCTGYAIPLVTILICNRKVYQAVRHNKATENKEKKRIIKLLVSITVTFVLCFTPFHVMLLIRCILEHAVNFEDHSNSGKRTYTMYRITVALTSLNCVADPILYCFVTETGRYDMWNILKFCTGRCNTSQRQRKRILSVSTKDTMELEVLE

[25] = molecular target: fMet-Leu-Phe receptor (Homo sapiens) (UniProt P21462); test: RLU of FPR1 at 1.0 µM in the […] PRESTO-Tango GPCRome screen
[26] = molecular target: Mas-related G-protein coupled receptor member E (Homo sapiens) (UniProt Q86SM8); test: RLU of MRGPRE at 1.0 µM in the […] PRESTO-Tango GPCRome screen
Chain of Mas-related G-protein coupled receptor member E (Homo sapiens) (Q86SM8 whole entry): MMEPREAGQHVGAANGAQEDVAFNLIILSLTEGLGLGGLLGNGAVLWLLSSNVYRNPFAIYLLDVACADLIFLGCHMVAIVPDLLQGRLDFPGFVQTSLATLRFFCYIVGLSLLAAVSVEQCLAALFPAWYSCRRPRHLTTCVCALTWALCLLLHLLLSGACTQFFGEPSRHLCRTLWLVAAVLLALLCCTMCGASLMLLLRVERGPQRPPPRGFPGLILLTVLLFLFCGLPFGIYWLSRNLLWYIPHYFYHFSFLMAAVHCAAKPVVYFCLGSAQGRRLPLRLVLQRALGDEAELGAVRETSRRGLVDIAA

[27] = molecular target: Adhesion G protein-coupled receptor F4 (Homo sapiens) (UniProt Q8IZF3); test: RLU of GPR115 at 1.0 µM in the […] PRESTO-Tango GPCRome screen
[28] = molecular target: P2Y purinoceptor 4 (Homo sapiens) (UniProt P51582); test: RLU of P2RY4 at 1.0 µM in the […] PRESTO-Tango GPCRome screen
[29] = molecular target: Substance-K receptor (Homo sapiens) (UniProt P21452); test: RLU of TACR2 at 1.0 µM in the […] PRESTO-Tango GPCRome screen
Chain of Substance-K receptor (Homo sapiens) (P21452 whole entry): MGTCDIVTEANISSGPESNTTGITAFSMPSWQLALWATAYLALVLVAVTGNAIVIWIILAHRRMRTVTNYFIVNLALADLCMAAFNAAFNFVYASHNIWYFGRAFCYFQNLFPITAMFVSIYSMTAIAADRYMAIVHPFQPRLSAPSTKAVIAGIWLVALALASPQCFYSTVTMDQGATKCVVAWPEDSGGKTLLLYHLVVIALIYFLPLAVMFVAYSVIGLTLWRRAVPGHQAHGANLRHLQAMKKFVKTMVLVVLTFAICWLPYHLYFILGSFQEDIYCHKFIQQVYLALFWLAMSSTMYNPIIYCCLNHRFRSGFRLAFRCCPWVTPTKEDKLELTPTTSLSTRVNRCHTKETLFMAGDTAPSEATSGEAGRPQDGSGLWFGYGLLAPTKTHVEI

[30] = molecular target: Somatostatin receptor type 1 (Homo sapiens) (UniProt P30872); test: RLU of SSTR1 at 1.0 µM in the […] PRESTO-Tango GPCRome screen
[31] = molecular target: Sphingosine 1-phosphate receptor 4 (Homo sapiens) (UniProt O95977); test: RLU of S1PR4 at 1.0 µM in the […] PRESTO-Tango GPCRome screen
[32] = molecular target: D(4) dopamine receptor (Homo sapiens) (UniProt P21917); test: RLU of DRD4 at 1.0 µM in the […] PRESTO-Tango GPCRome screen
Chain of D(4) dopamine receptor (Homo sapiens) (P21917 whole entry): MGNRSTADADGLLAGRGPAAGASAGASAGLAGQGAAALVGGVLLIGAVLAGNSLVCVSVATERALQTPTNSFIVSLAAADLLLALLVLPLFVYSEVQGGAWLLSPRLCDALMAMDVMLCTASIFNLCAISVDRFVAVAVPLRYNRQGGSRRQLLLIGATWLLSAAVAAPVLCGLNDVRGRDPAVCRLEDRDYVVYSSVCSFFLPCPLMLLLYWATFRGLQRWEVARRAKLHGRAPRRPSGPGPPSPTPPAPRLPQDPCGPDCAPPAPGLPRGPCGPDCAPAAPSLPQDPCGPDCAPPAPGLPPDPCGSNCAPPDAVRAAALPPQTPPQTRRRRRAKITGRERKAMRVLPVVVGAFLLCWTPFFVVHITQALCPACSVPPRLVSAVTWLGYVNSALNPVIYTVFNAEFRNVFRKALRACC

[33] = molecular target: Endothelin receptor type B (Homo sapiens) (UniProt P24530); test: RLU of EDNRB at 1.0 µM in the […] PRESTO-Tango GPCRome screen
[34] = molecular target: Beta-1 adrenergic receptor (Homo sapiens) (UniProt P08588); test: RLU of ADRB1 at 1.0 µM in the […] PRESTO-Tango GPCRome screen
Chain of Beta-1 adrenergic receptor (Homo sapiens) (P08588 whole entry, looked up): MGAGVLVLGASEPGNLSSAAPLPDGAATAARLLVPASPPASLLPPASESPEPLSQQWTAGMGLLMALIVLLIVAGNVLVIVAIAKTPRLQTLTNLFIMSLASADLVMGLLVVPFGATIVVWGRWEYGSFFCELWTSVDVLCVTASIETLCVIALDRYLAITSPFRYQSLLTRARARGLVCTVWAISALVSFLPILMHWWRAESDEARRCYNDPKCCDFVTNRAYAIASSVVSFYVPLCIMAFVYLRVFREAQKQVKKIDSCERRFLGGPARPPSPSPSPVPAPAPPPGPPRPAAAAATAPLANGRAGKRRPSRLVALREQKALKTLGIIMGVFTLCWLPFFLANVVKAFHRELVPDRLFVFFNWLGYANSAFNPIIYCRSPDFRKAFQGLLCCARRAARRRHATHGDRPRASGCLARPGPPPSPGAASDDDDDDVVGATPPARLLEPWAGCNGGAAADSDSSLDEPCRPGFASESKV

[35] = molecular target: Probable G-protein coupled receptor 174 (Homo sapiens) (UniProt Q9BXC1); test: RLU of GPR174 at 1.0 µM in the […] PRESTO-Tango GPCRome screen

Chain of C5a anaphylatoxin chemotactic receptor 1 (Homo sapiens) (P21730 whole entry): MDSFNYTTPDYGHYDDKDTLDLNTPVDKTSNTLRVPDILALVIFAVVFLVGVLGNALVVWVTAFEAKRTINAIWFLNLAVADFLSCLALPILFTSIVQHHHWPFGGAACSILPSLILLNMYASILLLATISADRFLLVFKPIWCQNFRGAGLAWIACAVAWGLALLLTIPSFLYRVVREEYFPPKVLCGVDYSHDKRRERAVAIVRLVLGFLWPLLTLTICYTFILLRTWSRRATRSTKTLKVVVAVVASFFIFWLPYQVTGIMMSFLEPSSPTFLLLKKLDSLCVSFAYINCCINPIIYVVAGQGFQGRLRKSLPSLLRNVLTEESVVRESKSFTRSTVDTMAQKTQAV

## CCCCC(=O)N1CC2(C1)CN(c1ccccc1-c1nnn[nH]1)C2
[1]
  RLU: 834
[2]
  RLU: 2280
[3]
  RLU: 2860
[4]
  RLU: -4100
[5]
  RLU: 2840
[6]
  RLU: -408
[7]
  RLU: -547
[8]
  RLU: 31.8
[9]
  RLU: -7190
[10]
  RLU: 897
[11]
  RLU: 4030
[12]
  RLU: -60.1
[13]
  RLU: -2140
[14]
  RLU: -1600
[15]
  RLU: 275
[16]
  RLU: 2720
[17]
  RLU: 12900
[18]
  RLU: -3090
[19]
  RLU: -570
[20]
  RLU: 3570
[21]
  RLU: 2040
[22]
  RLU: 2920
[23]
  RLU: 3310
[24]
  RLU: -1350
[25]
  RLU: 3270
[26]
  RLU: -3210
[27]
  RLU: -283
[28]
  RLU: -311
[29]
  RLU: -238
[30]
  RLU: -1070
[31]
  RLU: -471
[32]
  RLU: -1390
[33]
  RLU: -88.5
[34]
  RLU: 19400
[35]
  RLU: -102

Source: ChEMBL document CHEMBL5723582, “Data for DCP probe T-10430” (2024)
